The text below walks through data of publication PMC7026418, “The kinase polypharmacology landscape of clinical PARP inhibitors” (Scientific Reports, 2020).

Holding throughout (experiment): biochemical
Holding throughout (parameters): DiscoveRx KINOMEscan active site-directed competition binding; percent of control kinase bound to immobilised ligand

One test has as its target T1, RIPK4 (Homo sapiens, UniProt P57078).
T1 sequence (P57078 1-832): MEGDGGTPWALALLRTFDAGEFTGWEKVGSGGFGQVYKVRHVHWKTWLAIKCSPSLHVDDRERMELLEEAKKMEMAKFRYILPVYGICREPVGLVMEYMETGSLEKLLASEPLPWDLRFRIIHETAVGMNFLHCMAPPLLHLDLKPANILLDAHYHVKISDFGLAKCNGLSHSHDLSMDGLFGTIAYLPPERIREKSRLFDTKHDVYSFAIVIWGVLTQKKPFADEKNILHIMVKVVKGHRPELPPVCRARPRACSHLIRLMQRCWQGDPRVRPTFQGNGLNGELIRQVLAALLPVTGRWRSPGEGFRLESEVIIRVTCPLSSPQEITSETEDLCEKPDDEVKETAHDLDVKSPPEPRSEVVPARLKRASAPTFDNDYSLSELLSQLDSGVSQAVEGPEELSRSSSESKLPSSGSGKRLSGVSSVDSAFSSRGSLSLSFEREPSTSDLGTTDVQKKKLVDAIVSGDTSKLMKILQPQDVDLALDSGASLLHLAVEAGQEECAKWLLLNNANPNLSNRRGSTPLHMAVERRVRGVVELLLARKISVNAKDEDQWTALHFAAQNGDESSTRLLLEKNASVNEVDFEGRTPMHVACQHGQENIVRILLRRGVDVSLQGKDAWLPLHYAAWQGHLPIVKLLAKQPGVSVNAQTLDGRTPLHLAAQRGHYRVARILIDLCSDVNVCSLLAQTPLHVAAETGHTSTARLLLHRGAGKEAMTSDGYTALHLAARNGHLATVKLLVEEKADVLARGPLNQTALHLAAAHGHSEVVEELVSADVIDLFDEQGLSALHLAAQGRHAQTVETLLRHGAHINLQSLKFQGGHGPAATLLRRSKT

The target of the next test is BTK (Homo sapiens, UniProt Q06187).
For the next test, the target named is T2, MST1 (Homo sapiens, UniProt Q13043).
T2 construct: gene STK4
T2 sequence (Q13043 1-487): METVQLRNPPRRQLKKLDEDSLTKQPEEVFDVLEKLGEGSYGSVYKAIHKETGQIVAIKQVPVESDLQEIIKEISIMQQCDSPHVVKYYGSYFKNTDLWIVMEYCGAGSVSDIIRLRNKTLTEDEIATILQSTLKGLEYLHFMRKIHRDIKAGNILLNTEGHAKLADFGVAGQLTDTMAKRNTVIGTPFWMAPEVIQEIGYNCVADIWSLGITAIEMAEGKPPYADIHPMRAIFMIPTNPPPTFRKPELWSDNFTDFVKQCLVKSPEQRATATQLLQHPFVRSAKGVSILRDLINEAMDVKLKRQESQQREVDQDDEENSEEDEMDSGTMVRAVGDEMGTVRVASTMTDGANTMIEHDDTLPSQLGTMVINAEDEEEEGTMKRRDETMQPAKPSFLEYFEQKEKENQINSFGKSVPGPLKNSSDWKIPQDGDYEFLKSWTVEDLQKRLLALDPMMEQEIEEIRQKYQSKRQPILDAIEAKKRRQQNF

The target in the next test is FGFR3(G697C) (Homo sapiens, UniProt P22607, G697C).
The target in the next test is T3, GRK7 (Homo sapiens, UniProt Q8WTQ7).
T3 sequence (Q8WTQ7 1-553): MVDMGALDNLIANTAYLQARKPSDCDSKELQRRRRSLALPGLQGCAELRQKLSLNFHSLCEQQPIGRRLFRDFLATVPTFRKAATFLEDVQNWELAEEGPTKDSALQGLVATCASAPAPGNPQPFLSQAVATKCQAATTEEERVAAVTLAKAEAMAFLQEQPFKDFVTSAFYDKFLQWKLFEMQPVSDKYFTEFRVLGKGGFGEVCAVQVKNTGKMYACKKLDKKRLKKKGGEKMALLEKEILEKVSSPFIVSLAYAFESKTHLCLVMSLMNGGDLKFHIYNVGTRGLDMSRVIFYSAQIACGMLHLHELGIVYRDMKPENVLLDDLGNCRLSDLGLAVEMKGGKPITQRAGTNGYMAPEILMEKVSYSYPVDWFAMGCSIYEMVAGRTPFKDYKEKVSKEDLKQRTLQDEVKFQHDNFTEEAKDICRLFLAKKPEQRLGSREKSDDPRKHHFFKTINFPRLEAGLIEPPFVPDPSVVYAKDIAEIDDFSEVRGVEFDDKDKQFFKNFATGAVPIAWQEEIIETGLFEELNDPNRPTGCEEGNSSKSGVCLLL

Another test concerns the target T4, DMPK2 (Homo sapiens, UniProt Q6DT37).
T4 construct: gene CDC42BPG

In another test the target is T5, ADCK3 (Homo sapiens, UniProt Q8NI60).
T5 construct: gene COQ8A

The mark [1] stands for this setting: read-out: Niraparib (MK-4827) / %Ctrl @ 10000nM.
The mark [2] stands for this setting: read-out: Olaparib / %Ctrl @ 10000nM.
The mark [3] stands for this setting: read-out: Rucaparib / %Ctrl @ 10000nM, binding competition, % of control.
The mark [4] stands for this setting: read-out: Talazoparib (BMN 673) / %Ctrl @ 10000nM.

Like-named read-outs stand apart in the source and are kept apart here.

T4 sequence (Q6DT37 whole entry): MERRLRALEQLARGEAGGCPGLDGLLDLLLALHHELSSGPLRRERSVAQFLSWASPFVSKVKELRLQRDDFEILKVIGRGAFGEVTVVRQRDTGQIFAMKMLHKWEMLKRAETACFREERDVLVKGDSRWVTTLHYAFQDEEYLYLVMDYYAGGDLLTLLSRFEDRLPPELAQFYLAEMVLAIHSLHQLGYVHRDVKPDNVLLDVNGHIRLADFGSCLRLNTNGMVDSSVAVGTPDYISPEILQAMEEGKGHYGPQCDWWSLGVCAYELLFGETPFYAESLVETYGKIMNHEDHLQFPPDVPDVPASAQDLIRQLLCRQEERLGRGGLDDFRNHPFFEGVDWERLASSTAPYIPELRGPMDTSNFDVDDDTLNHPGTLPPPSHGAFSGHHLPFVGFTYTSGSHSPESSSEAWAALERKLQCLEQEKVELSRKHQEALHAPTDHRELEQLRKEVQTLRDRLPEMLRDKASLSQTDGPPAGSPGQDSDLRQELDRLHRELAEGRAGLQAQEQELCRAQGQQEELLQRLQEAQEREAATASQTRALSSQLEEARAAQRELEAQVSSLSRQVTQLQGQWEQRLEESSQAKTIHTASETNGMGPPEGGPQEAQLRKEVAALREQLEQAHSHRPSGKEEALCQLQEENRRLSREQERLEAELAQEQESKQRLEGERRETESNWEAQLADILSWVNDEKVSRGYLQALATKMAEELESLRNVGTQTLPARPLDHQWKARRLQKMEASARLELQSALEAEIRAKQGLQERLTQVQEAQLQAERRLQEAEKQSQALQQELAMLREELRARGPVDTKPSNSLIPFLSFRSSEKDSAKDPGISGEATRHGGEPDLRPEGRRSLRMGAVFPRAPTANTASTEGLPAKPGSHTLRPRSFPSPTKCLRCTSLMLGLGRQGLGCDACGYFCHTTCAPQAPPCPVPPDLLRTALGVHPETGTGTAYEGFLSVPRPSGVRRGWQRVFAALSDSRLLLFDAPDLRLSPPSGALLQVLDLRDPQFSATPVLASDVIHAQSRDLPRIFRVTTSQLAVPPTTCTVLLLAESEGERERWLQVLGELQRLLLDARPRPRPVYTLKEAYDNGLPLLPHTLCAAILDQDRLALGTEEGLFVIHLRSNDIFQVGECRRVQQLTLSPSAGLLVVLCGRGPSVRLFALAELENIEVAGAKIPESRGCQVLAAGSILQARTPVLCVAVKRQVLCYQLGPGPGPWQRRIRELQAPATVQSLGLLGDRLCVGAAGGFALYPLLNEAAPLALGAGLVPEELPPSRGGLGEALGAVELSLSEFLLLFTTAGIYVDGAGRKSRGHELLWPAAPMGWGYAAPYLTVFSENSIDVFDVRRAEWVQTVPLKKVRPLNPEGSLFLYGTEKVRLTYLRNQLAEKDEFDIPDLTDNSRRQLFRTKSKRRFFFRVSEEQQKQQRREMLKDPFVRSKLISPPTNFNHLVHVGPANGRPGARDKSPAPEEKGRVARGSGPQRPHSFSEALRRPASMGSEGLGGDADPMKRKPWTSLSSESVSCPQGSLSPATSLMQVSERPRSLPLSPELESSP
T5 sequence (Q8NI60 whole entry): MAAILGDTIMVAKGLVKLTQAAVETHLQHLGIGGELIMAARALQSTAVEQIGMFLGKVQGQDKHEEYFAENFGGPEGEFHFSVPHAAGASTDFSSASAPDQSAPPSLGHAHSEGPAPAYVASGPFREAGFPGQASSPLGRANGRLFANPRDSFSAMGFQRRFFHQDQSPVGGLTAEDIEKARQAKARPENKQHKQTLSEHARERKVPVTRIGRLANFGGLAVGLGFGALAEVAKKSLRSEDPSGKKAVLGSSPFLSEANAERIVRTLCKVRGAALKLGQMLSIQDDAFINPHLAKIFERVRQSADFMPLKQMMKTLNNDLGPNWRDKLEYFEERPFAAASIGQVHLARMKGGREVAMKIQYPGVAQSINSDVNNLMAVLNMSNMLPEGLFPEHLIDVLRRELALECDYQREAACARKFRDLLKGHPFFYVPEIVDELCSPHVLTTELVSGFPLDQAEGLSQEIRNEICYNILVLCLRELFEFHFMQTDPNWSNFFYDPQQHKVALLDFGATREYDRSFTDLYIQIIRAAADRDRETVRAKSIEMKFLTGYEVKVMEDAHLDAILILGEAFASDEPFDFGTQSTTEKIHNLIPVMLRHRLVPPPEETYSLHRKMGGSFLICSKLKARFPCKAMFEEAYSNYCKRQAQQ
FGFR3(G697C), sequence (P22607 whole entry G697C): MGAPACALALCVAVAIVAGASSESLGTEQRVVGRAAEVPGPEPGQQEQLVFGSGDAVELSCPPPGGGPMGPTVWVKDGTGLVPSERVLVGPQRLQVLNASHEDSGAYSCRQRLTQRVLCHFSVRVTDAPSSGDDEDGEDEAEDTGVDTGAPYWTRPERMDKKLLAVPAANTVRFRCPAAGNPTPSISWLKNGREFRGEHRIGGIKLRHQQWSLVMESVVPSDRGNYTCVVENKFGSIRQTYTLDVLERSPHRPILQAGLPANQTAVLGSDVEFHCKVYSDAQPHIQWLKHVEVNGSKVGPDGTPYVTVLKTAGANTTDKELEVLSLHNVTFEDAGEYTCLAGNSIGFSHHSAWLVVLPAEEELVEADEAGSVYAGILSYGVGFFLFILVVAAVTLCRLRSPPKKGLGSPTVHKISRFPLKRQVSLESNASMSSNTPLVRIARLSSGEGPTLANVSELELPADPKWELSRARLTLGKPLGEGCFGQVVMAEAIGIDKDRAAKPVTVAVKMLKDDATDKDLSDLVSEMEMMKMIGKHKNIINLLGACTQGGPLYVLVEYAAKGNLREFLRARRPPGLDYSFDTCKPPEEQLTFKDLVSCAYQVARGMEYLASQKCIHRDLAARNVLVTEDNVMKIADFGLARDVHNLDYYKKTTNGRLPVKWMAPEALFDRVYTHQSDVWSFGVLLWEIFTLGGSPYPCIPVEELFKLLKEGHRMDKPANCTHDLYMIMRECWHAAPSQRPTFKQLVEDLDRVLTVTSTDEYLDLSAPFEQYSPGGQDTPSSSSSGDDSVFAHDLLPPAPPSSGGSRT
BTK, sequence (Q06187 whole entry): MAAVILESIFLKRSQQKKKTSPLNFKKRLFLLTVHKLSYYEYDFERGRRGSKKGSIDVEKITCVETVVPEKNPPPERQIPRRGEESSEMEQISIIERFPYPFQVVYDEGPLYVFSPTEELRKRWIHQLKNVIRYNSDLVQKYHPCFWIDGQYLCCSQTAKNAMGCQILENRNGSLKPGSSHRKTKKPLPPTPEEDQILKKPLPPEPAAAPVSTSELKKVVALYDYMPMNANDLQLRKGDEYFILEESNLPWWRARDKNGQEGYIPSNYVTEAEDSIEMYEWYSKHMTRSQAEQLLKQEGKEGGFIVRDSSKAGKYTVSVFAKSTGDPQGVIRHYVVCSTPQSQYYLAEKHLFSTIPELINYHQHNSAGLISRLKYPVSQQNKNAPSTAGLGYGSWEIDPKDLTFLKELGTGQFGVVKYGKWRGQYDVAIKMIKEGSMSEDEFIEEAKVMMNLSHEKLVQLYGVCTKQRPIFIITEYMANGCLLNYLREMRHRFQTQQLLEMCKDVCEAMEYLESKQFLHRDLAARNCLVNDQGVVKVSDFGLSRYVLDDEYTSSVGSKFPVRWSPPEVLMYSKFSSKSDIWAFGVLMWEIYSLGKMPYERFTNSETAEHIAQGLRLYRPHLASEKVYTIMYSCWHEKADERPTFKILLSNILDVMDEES

As for `NC(=O)c1cccc2cn(-c3ccc([C@@H]4CCCNC4)cc3)nc12` [Niraparib], the percent of control binding at 10 µM on RIPK4 (setting [1]) stood at 81%; on BTK (setting [1]) it was 95%; at MST1 (setting [1]) it was 87%; at FGFR3(G697C) (setting [1]) it was 90%; on GRK7 (setting [1]), 88%; on DMPK2 (setting [1]), 93%. Besides, on ADCK3 (setting [1]), the percent of control binding at 10 µM is 57%.

Consider `O=C(c1cc(Cc2n[nH]c(=O)c3ccccc23)ccc1F)N1CCN(C(=O)C2CC2)CC1` [Olaparib], for which the percent of control binding at 10 µM was 81% on RIPK4 (setting [2]); 86% at BTK (setting [2]); 97% on MST1 (setting [2]); 98% on FGFR3(G697C) (setting [2]); 85% at GRK7 (setting [2]); 100% at DMPK2 (setting [2]). Besides, the percent of control binding at 10 µM at ADCK3 (setting [2]) came out at 99%.

For `CNCc1ccc(-c2[nH]c3cc(F)cc4c3c2CCNC4=O)cc1` [Rucaparib], the percent of control binding at 10 µM turned out to be 75% at RIPK4 (setting [3]); 83% on BTK (setting [3]); 85% on MST1 (setting [3]); 100% at FGFR3(G697C) (setting [3]); 48% at GRK7 (setting [3]); 99% on DMPK2 (setting [3]). Besides, the percent of control binding at 10 µM on ADCK3 (setting [3]) stood at 69%.

In the case of `Cn1ncnc1[C@H]1c2n[nH]c(=O)c3cc(F)cc(c23)N[C@@H]1c1ccc(F)cc1` [Talazoparib], the percent of control binding at 10 µM came out at 69% on RIPK4 (setting [4]); 100% at BTK (setting [4]); 100% on MST1 (setting [4]); 92% on FGFR3(G697C) (setting [4]); 100% at GRK7 (setting [4]); 100% at DMPK2 (setting [4]). Further, the percent of control binding at 10 µM at ADCK3 (setting [4]) amounted to 100%.
